Patent publication US7001907B2, “Peptide-containing α-ketoamide cysteine and serine protease inhibitors” (Cephaon, Inc., priority 1997, dated 2006)

Target: T1, Recombinant human calpain I (Homo sapiens, UniProt P07384)
T1 construct: made in house
T1 sequence (P07384 1-714): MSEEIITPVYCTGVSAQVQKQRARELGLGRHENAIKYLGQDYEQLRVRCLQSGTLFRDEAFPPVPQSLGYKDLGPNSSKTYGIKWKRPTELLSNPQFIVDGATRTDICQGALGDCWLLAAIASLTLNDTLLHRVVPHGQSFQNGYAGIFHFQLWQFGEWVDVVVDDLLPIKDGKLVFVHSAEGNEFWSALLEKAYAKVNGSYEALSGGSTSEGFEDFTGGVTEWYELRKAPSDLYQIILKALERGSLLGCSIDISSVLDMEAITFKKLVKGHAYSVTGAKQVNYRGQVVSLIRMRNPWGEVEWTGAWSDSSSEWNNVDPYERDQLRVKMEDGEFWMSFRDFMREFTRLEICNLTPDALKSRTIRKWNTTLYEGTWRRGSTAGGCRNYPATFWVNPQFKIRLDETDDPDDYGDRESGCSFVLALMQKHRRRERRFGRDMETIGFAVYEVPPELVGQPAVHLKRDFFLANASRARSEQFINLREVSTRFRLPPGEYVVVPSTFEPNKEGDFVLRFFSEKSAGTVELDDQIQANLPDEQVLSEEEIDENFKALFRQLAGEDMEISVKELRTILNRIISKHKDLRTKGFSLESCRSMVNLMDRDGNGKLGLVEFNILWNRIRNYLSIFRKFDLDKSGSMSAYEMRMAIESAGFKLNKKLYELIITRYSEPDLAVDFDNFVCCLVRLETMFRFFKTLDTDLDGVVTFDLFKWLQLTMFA
T1 sequence (P04632 1-268 partner): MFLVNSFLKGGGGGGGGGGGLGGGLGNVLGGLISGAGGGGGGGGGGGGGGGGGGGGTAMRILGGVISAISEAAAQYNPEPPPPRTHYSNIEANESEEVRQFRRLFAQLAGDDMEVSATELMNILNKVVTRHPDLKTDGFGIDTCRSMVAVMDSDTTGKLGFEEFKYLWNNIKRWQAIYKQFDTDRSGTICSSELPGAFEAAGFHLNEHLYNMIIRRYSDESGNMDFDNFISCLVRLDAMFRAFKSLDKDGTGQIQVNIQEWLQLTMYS
Test: Inhibition of cysteine protease activity: calpain I, Succ-Leu-Tyr-MNA substrate hydrolysis
Assay type: biochemical
Method: To evaluate inhibitory activity, stock solutions (40 times concentrated) of each compound to be tested were prepared in 100% anhydrous DMSO and 5 μl of each inhibitor preparation were aliquoted into each of three wells of a 96-well plate. Recombinant human calpain I, prepared by the method of Meyer et al. (Biochem. J. 1996, 314: 511–519; incorporated herein by reference in its entirety), was diluted into assay buffer (i.e., 50 mM Tris, 50 mM NaCl, 1 mM EDTA, 1 mM EGTA, and 5 mM β-mercaptoethanol, pH 7.5, including 0.2 mM Succ-Leu-Tyr-MNA), and 175 μl was aliquoted into the same wells containing the independent inhibitor stocks as well as to positive control wells containing 5 μl DMSO, but no compound. To start the reaction, 20 μl of 50 mM CaCl2 in assay buffer was added to all wells of the plate, excepting three, which were used as background signal baseline controls. Substrate hydrolysis was monitored every 5 minutes for a total of 30 minutes. Substrate hydrolysis in the absence of inhibitor was linear for up to 15 minutes.
Inhibition of calpain I activity was calculated as the percent decrease in the rate of substrate hydrolysis in the presence of inhibitor relative to the rate in its absence. Comparison between the inhibited and control rates was made within the linear range for substrate hydrolysis. The IC50s of inhibitors (concentration yielding 50% inhibition) were determined from the percent decrease in rates of substrate hydrolysis in the presence of five to seven different concentrations of the test compound. The results were plotted as percent inhibition versus log inhibitor concentration, and the IC50 was calculated by fitting the data to the four-parameter logistic equation shown below using the program GraphPad Prism (GraphPad Software, Inc., San Diego, Calif.). y=d+[(a−d)/(1+(x/c)^b)]
The parameters a, b, c, and d are defined as follows: a is % inhibition in the absence of inhibitor, b is the slope, c is the IC50, and d is the % inhibition at an infinite concentration of inhibitor.

[1] = Table 5, achiral P2 mimetic α-ketoamides

Row | SMILES | IC50 [1] | IC50 (Table 4, α-ketoamides) | also measured
1 | O=C(CCCc1ccccc1)N[C@@H](Cc1ccccc1)C(=O)C(=O)NCCNS(=O)(=O)c1ccc(-c2ccccn2)s1 [Compound 149] | 1500 nM |  | 
2 | O=C(NCCNS(=O)(=O)c1ccccc1)C(=O)[C@H](Cc1ccccc1)NC(=O)[C@@H]1CCCN1S(=O)(=O)c1ccccc1 [Compound 13] |  |  | Percent inhibition @ 10 μM (Calpain) (Table 2, 10 μM compound, values in brackets marked **): (78%)
3 | CC(C)CCC(=O)N[C@@H](Cc1ccccc1)C(=O)C(=O)NCCNS(=O)(=O)c1ccc(-c2ccccn2)s1 [Compound 145] | 29 nM |  | 
4 | O=C(NCCNS(=O)(=O)c1ccc(-c2ccon2)s1)C(=O)[C@H](Cc1ccccc1)NC(=O)c1c(F)cccc1F [Compound 136] | 62 nM |  | 
5 | CN1CCN(Cc2cccc(-c3ccc(S(=O)(=O)NCCNC(=O)C(=O)[C@H](Cc4ccccc4)NC(=O)[C@@H](COCc4ccccc4)NS(C)(=O)=O)s3)c2)CC1 [Compound 58] |  | 21 nM | 
6 | CS(=O)(=O)N[C@H](COCc1ccccc1)C(=O)N[C@@H](Cc1ccccc1)C(=O)C(=O)NCCNS(=O)(=O)c1ccc(S(=O)(=O)c2ccccc2)s1 [Compound 37] |  |  | IC50 (Table 2, linear α-ketoamides): 18 nM
7 | CS(=O)(=O)NC(COCc1ccccc1)C(=O)NC(Cc1ccccc1)C(=O)C(=O)NCCNS(=O)(=O)c1ccc(-c2cccc(C#N)c2)s1 (mixture of isomers) [Compound 110] |  | 11 nM | 
8 | CN(Cc1cccc(-c2ccc(S(=O)(=O)NCCNC(=O)C(=O)[C@H](Cc3ccccc3)NC(=O)[C@@H](COCc3ccccc3)NS(C)(=O)=O)s2)c1)C1CCCCC1 [Compound 102] |  | 36 nM | 
9 | CC(C)CCC(=O)N[C@@H](Cc1ccccc1)C(=O)C(=O)NCCNS(=O)(=O)c1ccc(-c2cccc(C#N)c2)s1 [Compound 150] | 15 nM |  | 
10 | CS(=O)(=O)N[C@H](COCc1ccccc1)C(=O)N[C@@H](Cc1ccccc1)C(=O)C(=O)NCCNS(=O)(=O)c1ccc(Br)s1 [Compound 39] |  |  | IC50 (Table 2, linear α-ketoamides): 22 nM

Second part, led by results:

Row | IC50 [1] | IC50 (Table 4, α-ketoamides) | SMILES | also measured
11 | 87 nM |  | CC(CCC(=O)N[C@@H](Cc1ccccc1)C(=O)C(=O)NCCNS(=O)(=O)c1ccc(-c2ccccn2)s1)c1ccccc1 (stereo partly drawn) [Compound 148] | 
12 |  | 36 nM | Cc1cccc(-c2ccc(S(=O)(=O)NCCNC(=O)C(=O)C(Cc3ccccc3)NC(=O)C(COCc3ccccc3)NS(C)(=O)=O)s2)c1 (mixture of isomers) [Compound 75] | 
13 |  | 48 nM | CS(=O)(=O)NC(COCc1ccccc1)C(=O)NC(Cc1ccccc1)C(=O)C(=O)NC1CCN(S(=O)(=O)c2ccc(CN3CCOCC3)cc2)CC1 (mixture of isomers) [Compound 78] | 
14 |  | 33 nM | CS(=O)(=O)N[C@H](COCc1ccccc1)C(=O)N[C@@H](Cc1ccccc1)C(=O)C(=O)NCCNS(=O)(=O)c1ccc(-c2cccc(CN3CCSCC3)c2)s1 [Compound 114] | 
15 |  | 12 nM | CS(=O)(=O)NC(COCc1ccccc1)C(=O)NC(Cc1ccccc1)C(=O)C(=O)NCCCCCNS(=O)(=O)c1ccc(-c2ccccn2)s1 (mixture of isomers) [Compound 92] | 
